The IC50 is the concentration that inhibits the measured activity by half. A higher IC50 goes with weaker potency.

Format in all cases: functional, organism-based
Experiment [1] has as its system rhinovirus A2. Kind of experiment: Evaluated for inhibitory activity against rhinovirus type 2. As to conditions: Rhinovirus A.
The test system of experiment [2] is rhinovirus B5. Put plainly: Evaluated for inhibitory activity against rhinovirus type 5. The settings on record: Rhinovirus B.
The subject of experiment [3] is rhinovirus A1B. Kind of experiment: Inhibitory activity against rhinovirus type 1B. As to conditions: Rhinovirus A.
In experiment [4] the test system is rhinovirus B4. Kind of experiment: Evaluated for inhibitory activity against rhinovirus type 4. As to conditions: Rhinovirus B.

For the molecule `Clc1nc(Nc2ccc(Br)cc2)c2ncn(Cc3ccccc3)c2n1`, the IC50 in experiment [1] amounted to 2.2 µM; in experiment [2], 9.5 µM; in experiment [3] it was 0.3 µM; in experiment [4] it was 7.8 µM.
As for `Cc1ccc(Cn2cnc3c(N(C)c4ccccc4)nc(C(F)(F)F)nc32)cc1`, the IC50 in experiment [1] is 2.7 µM; in experiment [2], greater than 8 µM; in experiment [3], 1.9 µM; in experiment [4], 5.1 µM.
Molecule `CCCCOc1ccc(Nc2nc(Cl)nc3c2ncn3Cc2ccccc2)cc1` came in with an IC50 in experiment [3] greater than 40 µM.
As for `CC(C)Oc1cccc(Nc2nc(Cl)nc3c2ncn3Cc2ccccc2)c1`, the 50% inhibitory concentration (IC50) in experiment [1] came out at 3.6 µM; in experiment [3], 2 µM; in experiment [4], 8.3 µM.
In experiment [3], `CN(C)c1ccc(Nc2nc(Cl)nc3c2ncn3Cc2ccccc2)cc1` returned a 50% inhibitory concentration (IC50) greater than 40 µM.
Same read-out and setting: next, `CC(C)Oc1ccc(Nc2nc(Cl)nc3c2ncn3Cc2ccccc2)cc1`: greater than 40 µM.
Same read-out and setting: next, `CCOC(=O)c1ccc(Nc2nc(Cl)nc3c2ncn3Cc2ccccc2)cc1`: greater than 10 µM.
As for `Clc1nc(Nc2cccc(Br)c2)c2ncn(Cc3ccccc3)c2n1`, the IC50 in experiment [1] came out at 2.8 µM; in experiment [2] it was 7.6 µM; in experiment [3], 2.9 µM; in experiment [4] it was 5.7 µM.
Regarding `Cc1ccc(Cn2cnc3c(N(C)C)nc(C(F)(F)F)nc32)cc1`, the midpoint of inhibition in experiment [3], the IC50, lay at 0.03 µM.
As for `CN(C)c1cccc(Nc2nc(Cl)nc3c2ncn3Cc2ccccc2)c1`, the IC50 in experiment [1] worked out at 3.1 µM; in experiment [2], 8.5 µM; in experiment [3], 2.4 µM; in experiment [4], 8.4 µM.
In turn, `N#Cc1ccc(Nc2nc(Cl)nc3c2ncn3Cc2ccccc2)cc1` yielded an IC50 in experiment [3] of 9.4 µM.
On the same count and under the same terms, the result for `CS(=O)(=O)c1cccc(Nc2nc(Cl)nc3c2ncn3Cc2ccccc2)c1` reads greater than 40 µM.
The same measure, in the same setting: the result for `O=[N+]([O-])c1cccc(Nc2nc(Cl)nc3c2ncn3Cc2ccccc2)c1` reads greater than 10 µM.
`Nc1ccc(Nc2nc(Cl)nc3c2ncn3Cc2ccccc2)cc1`: the IC50 in experiment [3] was greater than 20 µM.
With `CSc1ccc(Nc2nc(Cl)nc3c2ncn3Cc2ccccc2)cc1`, the results for the half-inhibitory concentration (IC50) in experiment [1], in experiment [3] and in experiment [4] were 11 µM, 0.14 µM and 8.7 µM, respectively.
Take `Clc1nc(Nc2ccccc2)c2ncn(Cc3ccccc3)c2n1`: the half-maximal inhibitory concentration (IC50) in experiment [1] was 8.3 µM; in experiment [2] it was 16.3 µM; in experiment [3], 1.65 µM; in experiment [4] it was 14.2 µM.
In experiment [3], `CC(=O)Nc1cccc(Nc2nc(Cl)nc3c2ncn3Cc2ccccc2)c1` registered an IC50 of 1.3 µM.
Same read-out and setting: the result for `Nc1cccc(Nc2nc(Cl)nc3c2ncn3Cc2ccccc2)c1` reads greater than 10 µM.
As for `Cc1ccc(Nc2nc(Cl)nc3c2ncn3Cc2ccccc2)cc1`, the IC50 worked out at 1.2 µM in experiment [1] and 0.3 µM in experiment [3].
`CCCCc1ccc(Nc2nc(Cl)nc3c2ncn3Cc2ccccc2)cc1` gave an IC50 in experiment [3] greater than 10 µM.
Still for that read-out and setting: the result for `CCCCOc1cccc(Nc2nc(Cl)nc3c2ncn3Cc2ccccc2)c1` reads 22 µM.
The same measure, in the same setting: next, `CC(=O)Nc1ccc(Nc2nc(Cl)nc3c2ncn3Cc2ccccc2)cc1`: greater than 20 µM.
Take `Fc1cccc(Nc2nc(Cl)nc3c2ncn3Cc2ccccc2)c1`: the half-inhibitory concentration (IC50) in experiment [1] came to 5.6 µM; in experiment [2] it was 5.6 µM; in experiment [3] it was 1.2 µM; in experiment [4], 5.5 µM.
Turning to `Cc1ccc(Cn2cnc3c(Nc4ccccc4)nc(Cl)nc32)cc1`, the IC50 is 3.9 µM in experiment [1], greater than 8 µM in experiment [2], 1 µM in experiment [3] and 6.4 µM in experiment [4].
Molecule `CCOC(=O)c1cccc(Nc2nc(Cl)nc3c2ncn3Cc2ccccc2)c1` showed an IC50 in experiment [3] greater than 10 µM.
For `FC(F)(F)c1ccc(Nc2nc(Cl)nc3c2ncn3Cc2ccccc2)cc1`, the IC50 turned out to be 16.6 µM in experiment [1], 200 µM in experiment [2], 0.3 µM in experiment [3] and 85 µM in experiment [4].
Consider `CS(=O)(=O)c1ccc(Nc2nc(Cl)nc3c2ncn3Cc2ccccc2)cc1`, for which the 50% inhibitory concentration (IC50) in experiment [1] worked out at 10.5 µM; in experiment [3] it was 2 µM; in experiment [4], 4.5 µM.
Turning to `Fc1ccc(Nc2nc(Cl)nc3c2ncn3Cc2ccccc2)cc1`, the IC50 in experiment [1] was determined as 6.2 µM; in experiment [2], 10 µM; in experiment [3], 1.28 µM; in experiment [4], 6.8 µM.

The values above are taken from ChEMBL document CHEMBL1124760, “Antirhinovirus activity of 6-anilino-9-benzyl-2-chloro-9H-purines” (J Med Chem, 1990).
